Measured values published in publication PMC10746112, “Synthesis and Pro-Apoptotic Effects of Nitrovinylanthracenes and Related Compounds in Chronic Lymphocytic Leukaemia (CLL) and Burkitt’s Lymphoma (BL)” (Molecules, 2023).

Legend:
Bjab BL cell line = test: alamarBlue cell viability assay; type: cell-based; conditions: Homo sapiens, 24 h
Experimental: (§1) Cells were seeded at a density of 2.5 × 10^4 cells/well (MCF-7, MDA-MB-231 cells), 1 × 10^4 cells/well (HL-60 cells), 1–5 × 10^4 cells per well (BL MUTU-I, DG-75 cells) and 2 × 10^5 cells/well [HG-3, PGA-1 (CLL cells)], Ramos, BJAB (BL cells) (200 μL per well), in 96-well plates. Cells were treated with the desired drug concentration for the appropriate time for each cell type, and the samples were incubated as required. alamarBlue (20 μL) was then added to each well and the samples further incubated in the dark at 37 °C for 4 h. Wells containing only reagent and cell culture medium in the absence of cells were used as blank controls. Ethanol was used as a vehicle, and cells were treated with 1% ethanol (v/v) in all experiments. The 96-well plates were analysed on a fluorescence plate reader (SpectraMax Gemini, Molecular Devices) (emission and excitement wavelengths of 590 nm and 544 nm, respectively), and the fluorescence was recorded. The decrease in cell viability was then calculated with reference to the vehicle samples (100% viability). EMEM medium with the addition of alamarBlue was used as a blank. Vehicle-treated cells were considered to be 100% viable, and the viabilities of each compound was calculated accordingly. […] All biochemical assays were performed in triplicate on at least three independent occasions, and the mean values were determined.

Ramos BL cell line = test: alamarBlue cell viability assay; type: cell-based; conditions: Homo sapiens, 24 h
Experimental: as §1

[1] = viability of peripheral blood mononuclear cells; type: cell-based, human; conditions: human, healthy donor PBMCs
Experimental: (§2) The nitrostyrene 11h was evaluated for its cytotoxic effect on healthy donor peripheral blood mononuclear cells (PBMCs) to determine the selective toxicity of compounds containing the nitrostyrene pharmacophore on malignant BL cell lines over normal blood cells. Compound 11h was evaluated at 1 μM and 10 μM concentrations over a 24 h treatment time (Supplementary Information, Table S8).
as §1
(§3) Peripheral blood was obtained from healthy donors (n = 2) after informed consent was received. The blood was then placed into a 50 mL falcon tube and diluted with an equal volume of phosphate-buffered saline (PBS). PBMCs were isolated using density gradient centrifugation using LymphoPrep as described previously Approval for this study was obtained from the School of Pharmacy and Pharmaceutical Sciences Trinity College Dublin Research Ethics Committee (2020-06-01-MS).

[2] = tested on: peripheral blood mononuclear cells (PBMCs); test: viability of peripheral blood mononuclear cells; type: cell-based, human; conditions: 24 h, healthy donor PBMCs
Experimental: as §2, §1, §3

HG-3 CLL cells = test: Inhibitor studies (NAC, Z-VAD-FMK), Annexin V/PI FACS; type: cell-based; conditions: 48 h
Experimental: (§4) Additional annexin V/PI FACS analysis was carried out in the presence of a reactive oxygen species (ROS) inhibitor (N-acetylcysteine) and a pan-caspase inhibitor (Z-VAD-FMK) in order to study their effects (if any) on the pro-apoptotic effects of 11h (Figure 6). […] Similar results were obtained in the HG-3 cell line at 2.5 µM (90% to 31%) and 5 µM of 11h (84% to 51%). In the presence of the caspase inhibitor Z-VAD-FMK ([…]), the apoptosis induced by compound 11h decreased from 63% to 25% at 2.5 µM and from 79% to 43% at 5 µM in the PGA1 cell line. Similar results were obtained in the HG-3 cell line at 2.5 µM (84% to 29%) and 5 µM (74% to 50%). These findings indicate that both caspases and ROS may be involved in the mechanism of apoptosis for compound 11h.
(§5) The HG-3 and PGA-1 CLL cells (5 × 10^4 cells/mL) were pre-treated at 37 °C with either 5 mM N-acetylcysteine (NAC) for 1 h or 40 μM caspase inhibitor (Z-VAD-FMK; MBL International, Co., Woburn, MA, USA) for 4 h prior to treatment with (11 h at 5 μM) for 48 h. Annexin V/PI FACS analysis was then carried out as described above in Section 4.5.

PGA-1 CLL cells = test: as above; type: cell-based; conditions: 48 h
Experimental: as §4, §5

[3] = tested on: MUTU-I Burkitt’s lymphoma cell line; conditions: nitrostyrenes, 24 h, cited from earlier work
[4] = tested on: HeLa cervical cancer cells; test: alamarBlue cell viability assay; conditions: Homo sapiens, 24 h
[5] = tested on: MCF-7 human breast cancer cells; test: alamarBlue cell viability assay; conditions: MCF7, 72 h
[6] = tested on: HL-60 promyelocytic leukaemia cells; test: alamarBlue cell viability assay; conditions: Homo sapiens, HL-60, 24 h

Structure (SMILES): C/C(=C\c1cccc(Cl)c1)[N+](=O)[O-] [Compound 11h]
- viability at 1 µM (Bjab BL cell line; read-out: % Viable Cells Remaining Bjab 24 h 1 µM): 90.1%
- viability at 10 µM (Bjab BL cell line; read-out: % Viable Cells Remaining Bjab 24 h 10 µM): 46.2%
- viability at 1 µM (Ramos BL cell line; read-out: % Viable Cells Remaining Ramos 24 h 1 µM): 27.2%
- viability at 10 µM (Ramos BL cell line; read-out: % Viable Cells Remaining Ramos 24 h 10 µM): 5.1%
- viability at 24 h, 1 µM ([1]; 1 µM): 74%
- viability at 24 h, 10 µM ([1]; 10 µM): 34.1%
- PBMCs % viability ([2]; 1 µM): 73.66±3.725%
- PBMCs % viability ([2]; 10 µM): 34.08±9.587%
- apoptosis (HG-3 CLL cells; HG-3, 2.5 µM compound, in the presence of NAC): 31%
- apoptosis (HG-3 CLL cells; HG-3, 2.5 µM compound, in the presence of Z-VAD-FMK): 29%
- apoptosis (HG-3 CLL cells; HG-3, 2.5 µM compound, without NAC): 90%
- apoptosis (HG-3 CLL cells; HG-3, 2.5 µM compound, without Z-VAD-FMK): 84%
- apoptosis (HG-3 CLL cells; HG-3, 5 µM compound, in the presence of NAC): 51%
- apoptosis (HG-3 CLL cells; HG-3, 5 µM compound, in the presence of Z-VAD-FMK): 50%
- apoptosis (HG-3 CLL cells; HG-3, 5 µM compound, without NAC): 84%
- apoptosis (HG-3 CLL cells; HG-3, 5 µM compound, without Z-VAD-FMK): 74%
- apoptosis (PGA-1 CLL cells; PGA1, 2.5 µM compound, in the presence of NAC): 21%
- apoptosis (PGA-1 CLL cells; PGA1, 2.5 µM compound, in the presence of Z-VAD-FMK): 25%
- apoptosis (PGA-1 CLL cells; PGA1, 2.5 µM compound, without NAC): 68%
- apoptosis (PGA-1 CLL cells; PGA1, 2.5 µM compound, without Z-VAD-FMK): 63%
- apoptosis (PGA-1 CLL cells; PGA1, 5 µM compound, in the presence of NAC): 33%
- apoptosis (PGA-1 CLL cells; PGA1, 5 µM compound, in the presence of Z-VAD-FMK): 43%
- apoptosis (PGA-1 CLL cells; PGA1, 5 µM compound, without NAC): 88%
- apoptosis (PGA-1 CLL cells; PGA1, 5 µM compound, without Z-VAD-FMK): 79%
- % Viable Cells Remaining MUTU-1 24 h 1 µM ([3]; 1 µM): 39.80%
- % Viable Cells Remaining MUTU-1 24 h 10 µM ([3]; 10 µM): 10.28%
- viability at 1 µM ([4]; read-out: % Viable Cells Remaining HeLa 24 h 1 µM): 90.6%
- viability at 10 µM ([4]; read-out: % Viable Cells Remaining HeLa 24 h 10 µM): 23.2%
- viability at 1 µM ([5]; read-out: % Viable Cells Remaining MCF-7 72 h 1 µM): 94.3%
- viability at 10 µM ([5]; read-out: % Viable Cells Remaining MCF-7 72 h 10 µM): 29.7%
- viability at 1 µM ([6]; read-out: % Viable Cells Remaining HL60 24 h 1 µM): 78.2%
- viability at 10 µM ([6]; read-out: % Viable Cells Remaining HL60 24 h 10 µM): 6.8%
